Measurements from patent US20230049952A1, “METHODS AND COMPOUNDS FOR RESTORING MUTANT P53 FUNCTION” (PMV Pharmaceuticals, Inc., priority 2020, published 2023).

Assays:
[1] = metabolic stability in cryopreserved hepatocytes; type: in vitro ADME, dog
Protocol: (§1) Mixed-gender human cryopreserved hepatocytes, male Sprague-Dawley rat cryopreserved hepatocytes, male CD-1 mouse cryopreserved hepatocytes, male beagle dog cryopreserved hepatocytes, and male cynomolgus monkey cryopreserved hepatocytes were used for the study. The hepatocytes were thawed, pooled into Krebs Henseleit buffer (KHB, pH 7.4), and kept on ice prior to the experiments. […] Each experiment was performed in triplicate. The final DMSO content in the incubation mixture was ≤0.1%. […] Aliquots of testosterone were withdrawn (n=1) at 0, 5, 15, 30, 60, and 120 minutes. Aliquots of 7-HC were withdrawn (n=1) at 0 and 15 minutes. The reaction was immediately terminated by adding three volumes of ice-cold MeCN containing IS. The samples were then mixed and spun by centrifuge to precipitate proteins. An aliquot of the supernatant was then diluted with water. Calibration standards for the analysis of 7-HC metabolites were prepared in matched matrix. […] All samples were analyzed by LC-MS/MS. The peak area response ratio (PARR) vs. IS was compared to the PARR at time 0 to determine the percent remaining at each time point. Half-lives and clearance values were calculated using GraphPad software, fitting to a single-phase exponential decay equation.
(§2) Mixed-gender human cryopreserved hepatocytes, male Sprague-Dawley rat cryopreserved hepatocytes, male CD-1 mouse cryopreserved hepatocytes, male beagle dog cryopreserved hepatocytes, and male cynomolgus monkey cryopreserved hepatocytes were thawed and pooled into KHB buffer (pH 7.4) and kept on ice prior to the experiments. […] Each experiment was performed in triplicate. The final DMSO content in the incubation mixture was ≤0.1%.
Aliquots of testosterone were withdrawn (n=1) at 0, 5, 15, 30, 60, and 120 minutes. Aliquots of 7-HC were withdrawn (n=1) at 0 and 15 minutes. The reaction was immediately terminated by adding three volumes of ice-cold MeCN containing IS. The samples were then mixed and spun by centrifuge to precipitate proteins. An aliquot of the supernatant was then diluted with water. Calibration standards for the analysis of 7-HC metabolites were prepared in matched matrix. […] All samples were analyzed by LC-MS/MS. Analytical conditions are outlined below. The peak area response ratio (PARR) vs. IS was compared to the PARR at time 0 to determine the percent remaining at each time point. Half-lives and clearance values were calculated using GraphPad software, fitting to a single-phase exponential decay equation.

[2] = metabolic stability in cryopreserved hepatocytes; type: in vitro ADME, mouse
Protocol: as §1, with “≤0.1%. […] Positive controls, testosterone (1 μM) and 7-hydroxycoumarin (7-HC) (100 μM), were performed in parallel to confirm the activity of the hepatocytes.” for “≤0.1%.”
as §2
(§3) Positive controls, testosterone (1 μM) and 7-hydroxycoumarin (7-HC) (100 μM), were performed in parallel to confirm the activity of the hepatocytes. […] Aliquots of testosterone were withdrawn (n=1) at 0, 5, 15, 30, 60, and 120 minutes. Aliquots of 7-HC were withdrawn (n=1) at 0 and 15 minutes. The reaction was immediately terminated by adding three volumes of ice-cold MeCN containing IS. The samples were then mixed and spun by centrifuge to precipitate proteins. An aliquot of the supernatant was then diluted with water. Calibration standards for the analysis of 7-HC metabolites were prepared in matched matrix. […] All samples were analyzed by LC-MS/MS. Analytical conditions are outlined below. The peak area response ratio (PARR) vs. IS was compared to the PARR at time 0 to determine the percent remaining at each time point. Half-lives and clearance values were calculated using GraphPad software, fitting to a single-phase exponential decay equation.

human hepatocytes = assay: metabolic stability in cryopreserved hepatocytes; type: in vitro ADME
Protocol: as §1, with “≤0.1%. […] Positive controls, testosterone (1 μM) and 7-hydroxycoumarin (7-HC) (100 μM), were performed in parallel to confirm the activity of the hepatocytes.” for “≤0.1%.”
as §2, §3

[3] = metabolic stability in cryopreserved hepatocytes; type: in vitro ADME, rat
Protocol: as §1, with “≤0.1%. […] Positive controls, testosterone (1 μM) and 7-hydroxycoumarin (7-HC) (100 μM), were performed in parallel to confirm the activity of the hepatocytes.” for “≤0.1%.”
as §2, §3

[4] = metabolic stability in cryopreserved hepatocytes; type: in vitro ADME, cynomolgus monkey
Protocol: as §1, with “≤0.1%. […] Positive controls, testosterone (1 μM) and 7-hydroxycoumarin (7-HC) (100 μM), were performed in parallel to confirm the activity of the hepatocytes.” for “≤0.1%.”
as §2, §3

CYP2B6 [5] = molecular target: T1, CYP2B6 (Homo sapiens, UniProt P20813); assay: time-dependent CYP inhibition in human liver microsomes (IC50 shift); settings: both, pooled human liver microsomes, pH 7.4, % of Control Enzyme Activity; for activity at 20 min, 0.37 µM: 0.370 μM
T1 sequence (P20813 1-491): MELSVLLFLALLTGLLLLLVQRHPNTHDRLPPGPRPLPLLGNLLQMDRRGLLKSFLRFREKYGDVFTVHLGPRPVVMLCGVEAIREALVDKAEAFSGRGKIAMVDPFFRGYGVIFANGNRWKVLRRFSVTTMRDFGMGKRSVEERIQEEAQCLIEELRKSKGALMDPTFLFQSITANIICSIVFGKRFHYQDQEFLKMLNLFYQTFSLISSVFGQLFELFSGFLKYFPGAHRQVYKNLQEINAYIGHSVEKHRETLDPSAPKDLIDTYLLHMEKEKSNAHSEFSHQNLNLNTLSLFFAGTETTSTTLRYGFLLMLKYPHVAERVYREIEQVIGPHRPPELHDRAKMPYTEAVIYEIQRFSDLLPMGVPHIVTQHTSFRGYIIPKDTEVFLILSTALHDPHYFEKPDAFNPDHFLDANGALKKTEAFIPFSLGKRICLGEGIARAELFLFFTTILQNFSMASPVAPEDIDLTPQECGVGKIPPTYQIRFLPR

CYP2B6 [6] = molecular target: T1, CYP2B6; assay: CYP inhibition in human liver microsomes; type: in vitro ADME; set-up: from tissue; host or cells: pooled human liver microsomes, 200 donors; settings: both sexes, pooled human liver microsomes, pH 7.4, HLM, read-out: % of Control Enzyme Activity
Protocol: The HLMs were stored at −80° C. until use.
Negative (vehicle) controls were conducted without a test article.

P-GP = P-GP (Homo sapiens, UniProt P08183); assay: in vitro; settings: pH 7.4
in vitro = settings: male, plasma
Protocol: Studies were carried out in mixed-gender human plasma, male Sprague-Dawley rat plasma, male CD-1 mouse plasma, male Beagle dog plasma, and male Cynomolgus monkey plasma collected on sodium heparin. A Rapid Equilibrium Dialysis (RED) device was used for all experiments. […] Blank PBS (500 μL) was added to each corresponding receiver chamber. The device was then placed into an enclosed heated rocker that was pre-warmed to 37° C., and allowed to incubate for four hours. After 4 hours of incubation, both sides were sampled.
Aliquots (50 μL for donor, 200 μL for receiver) were removed from the chambers and placed into a 96-well plate. Plasma (50 μL) was added to the wells containing the receiver samples, and 200 μL of PBS was added to the wells containing the donor samples. Two volumes of acetonitrile were added to each well, and the plate was mixed and then centrifuged at 3,000 rpm for 10 minutes. Aliquots of the supernatant were removed, and analyzed by LCMS/MS. Calibration standards were prepared in a matched matrix and prepared similarly to the assay samples. Binding and recovery values were calculated as follows: % Bound=[(Concentration in Donor−Concentration in Receiver)/(Concentration in Donor)]×100; % Recovery=[(Concentration in Donor+Concentration in Receiver)/(Nominal Dosing Concentration)]×100.

[7] = Dog cryopreserved hepatocytes, positive control 7-hydroxycoumarin 100 μM
[8] = Dog hepatocytes, from 7-hydroxycoumarin (7-HC) 100 μM positive control
[9] = Mouse cryopreserved hepatocytes, positive control 7-hydroxycoumarin 100 μM
[10] = Mouse hepatocytes, from 7-hydroxycoumarin (7-HC) 100 μM positive control
[11] = Human cryopreserved hepatocytes, positive control 7-hydroxycoumarin 100 μM
[12] = Human hepatocytes, from 7-hydroxycoumarin (7-HC) 100 μM positive control
[13] = Rat cryopreserved hepatocytes, positive control 7-hydroxycoumarin 100 μM
[14] = Rat hepatocytes, from 7-hydroxycoumarin (7-HC) 100 μM positive control
[15] = Monkey cryopreserved hepatocytes, positive control 7-hydroxycoumarin 100 μM
[16] = Monkey hepatocytes, from 7-hydroxycoumarin (7-HC) 100 μM positive control

Chain of P-GP (P08183 whole entry): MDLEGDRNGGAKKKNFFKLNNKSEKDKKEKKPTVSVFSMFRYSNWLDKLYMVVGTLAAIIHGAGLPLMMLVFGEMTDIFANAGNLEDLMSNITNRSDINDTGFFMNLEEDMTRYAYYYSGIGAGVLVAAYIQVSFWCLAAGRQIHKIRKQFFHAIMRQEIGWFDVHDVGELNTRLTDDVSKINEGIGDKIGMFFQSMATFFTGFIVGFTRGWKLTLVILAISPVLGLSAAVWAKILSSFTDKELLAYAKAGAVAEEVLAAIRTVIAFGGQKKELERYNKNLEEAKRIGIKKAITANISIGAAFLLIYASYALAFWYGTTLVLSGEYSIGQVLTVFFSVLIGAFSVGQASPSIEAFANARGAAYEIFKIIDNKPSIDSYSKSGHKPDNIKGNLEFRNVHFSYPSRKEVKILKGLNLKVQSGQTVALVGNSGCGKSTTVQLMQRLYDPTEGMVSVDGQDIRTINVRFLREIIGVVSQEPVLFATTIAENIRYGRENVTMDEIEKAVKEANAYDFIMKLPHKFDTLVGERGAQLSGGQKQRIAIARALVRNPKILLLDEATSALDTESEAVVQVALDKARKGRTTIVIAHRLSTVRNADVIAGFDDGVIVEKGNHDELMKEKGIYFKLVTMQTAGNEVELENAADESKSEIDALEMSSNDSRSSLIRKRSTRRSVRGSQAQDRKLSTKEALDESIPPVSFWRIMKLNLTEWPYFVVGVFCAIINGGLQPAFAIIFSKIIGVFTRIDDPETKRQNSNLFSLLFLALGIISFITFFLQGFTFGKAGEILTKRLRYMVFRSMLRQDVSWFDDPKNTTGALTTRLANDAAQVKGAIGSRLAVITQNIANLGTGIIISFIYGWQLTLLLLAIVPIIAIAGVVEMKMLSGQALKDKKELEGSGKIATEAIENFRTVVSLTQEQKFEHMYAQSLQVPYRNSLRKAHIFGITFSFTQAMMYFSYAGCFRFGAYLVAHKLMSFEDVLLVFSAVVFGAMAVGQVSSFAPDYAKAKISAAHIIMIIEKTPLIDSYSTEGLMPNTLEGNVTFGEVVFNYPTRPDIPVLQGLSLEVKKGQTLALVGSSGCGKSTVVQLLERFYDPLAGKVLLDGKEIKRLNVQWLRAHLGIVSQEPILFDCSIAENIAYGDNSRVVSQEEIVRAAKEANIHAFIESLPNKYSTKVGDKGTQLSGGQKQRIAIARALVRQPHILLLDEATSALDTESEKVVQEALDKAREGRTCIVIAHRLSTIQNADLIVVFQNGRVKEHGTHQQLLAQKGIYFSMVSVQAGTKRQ

| SMILES | Formation Rate [1, 7] [pmol/min/10^6 cells] | Formation Rate [1, 8] [pmol/min/10^6 cells] | Formation Rate [2, 9] [pmol/min/10^6 cells] | Formation Rate [2, 10] [pmol/min/10^6 cells] | Formation Rate (human hepatocytes; [11]) [pmol/min/10^6 cells] | Formation Rate (human hepatocytes; [12]) [pmol/min/10^6 cells] | Formation Rate [3, 13] [pmol/min/10^6 cells] | Formation Rate [3, 14] [pmol/min/10^6 cells] | Formation Rate [4, 15] [pmol/min/10^6 cells] | Formation Rate [4, 16] [pmol/min/10^6 cells] | also measured |
| --- | --- | --- | --- | --- | --- | --- | --- | --- | --- | --- | --- |
| O=C(O)[C@H]1O[C@@H](Oc2ccc3ccc(=O)oc3c2)[C@H](O)[C@@H](O)[C@@H]1O [Compound 7-HC-G] | 301 | 301 | 234 | 234 | 316 | 316 | 253 | 253 | 279 | 279 | – |
| O=c1ccc2ccc(OS(=O)(=O)[O-])cc2o1.[K+] [Compound 7-HC-S] | 24.5 | 24.5 | 6.36 | 6.36 | 7.74 | 7.74 | 34.0 | 34 | 13.3 | 13.3 | – |
| S=P(N1CC1)(N1CC1)N1CC1 [Thio-TEPA] | – | – | – | – | – | – | – | – | – | – | activity at 20 min, 0.37 µM (CYP2B6 [5]; pre-incubation 30 min +NADPH): 86.4%; activity at 20 min, 3.33 µM (CYP2B6 [5]; pre-incubation 30 min +NADPH): 37.6%; activity at 20 min, 10 µM (CYP2B6 [5]; pre-incubation 30 min +NADPH): 18%; activity at 20 min, 30 µM (CYP2B6 [5]; pre-incubation 30 min +NADPH): 11.7%; activity at 20 min, 0.37 µM (CYP2B6 [5]; pre-incubation 30 min −NADPH): 92.5%; activity at 20 min, 3.33 µM (CYP2B6 [5]; pre-incubation 30 min −NADPH): 78.5%; activity at 20 min, 10 µM (CYP2B6 [5]; pre-incubation 30 min −NADPH): 58.6%; activity at 20 min, 30 µM (CYP2B6 [5]; pre-incubation 30 min −NADPH): 41.4%; activity at 20 min, 0.123 µM (CYP2B6 [6]; 0.123 μM): 97%; activity at 20 min, 0.37 µM (CYP2B6 [6]; 0.370 μM): 97.3%; activity at 20 min, 3.33 µM (CYP2B6 [6]; 3.33 μM): 69.7%; activity at 20 min, 10 µM (CYP2B6 [6]; 10.0 μM): 44.3%; activity at 20 min, 30 µM (CYP2B6 [6]; 30.0 μM): 25.6% |
| C/C=C/C[C@@H](C)C(=O)[C@H]1C(=O)N[C@@H](C(C)C)C(=O)N(C)CC(=O)N(C)[C@@H](CC(C)C)C(=O)N[C@@H](C(C)C)C(=O)N(C)[C@@H](CC(C)C)C(=O)N[C@@H](C)C(=O)N[C@H](C)C(=O)N(C)[C@@H](CC(C)C)C(=O)N(C)[C@@H](CC(C)C)C(=O)N(C)[C@@H](C(C)C)C(=O)N1C [Valspodar, valspodar] | – | – | – | – | – | – | – | – | – | – | inhibition at 120 min, 1 µM (P-GP): 100% |
| CC(=O)CC(c1ccccc1)c1c(O)c2ccccc2oc1=O (stereo not shown) [Warfarin, warfarin] | – | – | – | – | – | – | – | – | – | – | fraction unbound at 4 h, 10 μM (in vitro; Beagle, dog, % Bound Mean): 0.026; fraction unbound at 4 h, 10 μM (in vitro; Beagle, dog, % Bound R1-R3): 0.027; fraction unbound at 4 h, 10 μM (in vitro; CD-1, mouse, % Bound Mean): 0.217; fraction unbound at 4 h, 10 μM (in vitro; CD-1, mouse, % Bound R1-R3): 0.226; fraction unbound at 4 h, 10 μM (in vitro; monkey, % Bound Mean): 0.006; fraction unbound at 4 h, 10 μM (in vitro; monkey, % Bound R1-R3): 0.007 |
